Measurements taken from PubChem BioAssay (NCI).
Values joined by “and” are separate entries in the source; they are usually repeats but may differ in a detail not shown here. Identical values can stand only once.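 Grown in 96-well plates, cells were treated for 48 hours with each compound at five concentrations. Insufficient inhibition: endpoint recorded as highest concentration tested. Here, GI50 denotes the concentration required for 50% inhibition of growth. Definition used: TGI = concentration required for complete inhibition of growth.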

How the values were obtained:
Experiment in all cases: DTP human tumour cell line panel, 48 h
EKVX NSCLC = system: EKVX NSCLC
MDA-MB-435 = system: MDA-MB-435
UACC-257 melanoma = system: UACC-257 melanoma
RPMI-8226 leukemia = system: RPMI-8226 leukemia
BT-549 breast = system: BT-549 breast
HL-60(TB) leukemia = system: HL-60(TB) leukemia
SK-MEL-2 melanoma = system: SK-MEL-2 melanoma
T-47D breast = system: T-47D breast
SF-268 CNS = system: SF-268 CNS
MALME-3M melanoma = system: MALME-3M melanoma

SMILES	TGI (EKVX NSCLC) [µM]	TGI (MDA-MB-435) [µM]	TGI (UACC-257 melanoma) [µM]	TGI (RPMI-8226 leukemia) [µM]	TGI (BT-549 breast) [µM]	TGI (HL-60(TB) leukemia)	TGI (SK-MEL-2 melanoma) [µM]	TGI (T-47D breast) [µM]	TGI (SF-268 CNS) [µM]	TGI (MALME-3M melanoma) [µM]	GI50 (MDA-MB-435)	GI50 (UACC-257 melanoma) [µM]	GI50 (RPMI-8226 leukemia)	GI50 (BT-549 breast)	GI50 (HL-60(TB) leukemia)	GI50 (SK-MEL-2 melanoma) [µM]	GI50 (T-47D breast)	GI50 (SF-268 CNS) [µM]	GI50 (MALME-3M melanoma)	GI50 (EKVX NSCLC)
CC(C)NC(=O)OCc1c(COC(=O)NC(C)C)c(-c2ccc[n+](COC(=O)Cc3ccccc3)c2)n2c1CCC2	> 100	> 100	> 100	> 100	66.6	> 100 µM	62.1	> 100	68	97.2	–	–	–	–	–	–	–	–	–	–
O=C([O][Hg][c]1ccccc1)c1ccccc1	–	3.1	3.03	4.56	2.64	1.86 µM	2.91	2.43	4.78	3.39	1.55 µM	1.38	1.23 µM	1.23 µM	0.325 µM	1.35	0.475 µM	1.89	1.77 µM	–
CC(c1cc(Cl)ccc1O)c1cc(Cl)ccc1O	13.4	7.25	–	9.89	16.9	5.75 µM	7.23	18.7	16.9	22.7	2.32 µM	–	3.73 µM	4.58 µM	2.55 µM	2.98	3.85 µM	4.33	4.61 µM	2.98 µM
O=C(O)CCCCn1ccc(=O)[nH]c1=O	> 100	> 100	> 100	> 100	> 100	> 100 µM	> 100	> 100	> 100	> 100	–	–	–	–	–	–	–	–	–	–
COc1cc2c3c(n(CCCN4CCNCC4)c(=O)c2cc1OC)-c1cc2c(cc1C3=O)OCO2	17.2	11.3	15.5	1.63	7.97	0.746 µM	28.3	21.3	8.49	12.2	3.27 µM	7.08	0.16 µM	1.4 µM	0.00886 µM	2.91	2.54 µM	0.795	2.55 µM	8.51 µM
CC1=C/C=C/C(=O)O[C@@H]([C@H](C)[C@H](O)[C@@H](C)NC(=O)C(C)C)[C@H](C)/C=C/C(C)=C/[C@H]2C=CCC[C@@]2(C)\C=C\1	25.1	6.43	13.3	12.3	16.3	9.12 µM and 13.7 µM	20.4	36.6	17.7	8.4	0.0335 µM and 0.0165 µM	–	0.705 µM and 0.703 µM	0.836 µM and 1.13 µM	0.744 µM and 0.747 µM	6.98	0.112 µM and 0.132 µM	–	2.01 µM and 1.71 µM	1.65 µM and 3.94 µM
CNS(=O)(=O)OCC1OC(n2cnc3cncnc32)C(O)C1O (stereo unspecified)	> 100	> 100	> 100	> 100	> 100	> 100 µM	> 100	> 100	> 100	> 100	> 100 µM	> 100	> 100 µM	> 100 µM	> 100 µM	> 100	> 100 µM	> 100	> 100 µM	> 100 µM
O=c1cc(-c2ccccc2)[nH]c2ncccc12	> 100	–	> 100	> 100	> 100	–	–	> 100	> 100	> 100	–	–	–	–	–	–	–	–	–	–
Cc1cc(Cl)nc2ccc(Cc3ccc4nc(Cl)cc(C)c4c3)cc12	> 100	> 100	> 100	> 100	> 100	–	> 100	54.8	> 100	> 100	–	–	–	–	–	–	–	–	–	–
CNC(=O)c1nn(C)c2c1C(C)(C)Cc1cnc(Nc3cccc(N4CCN(C)CC4)c3)nc1-2	–	11.8	7.09	1.06	13.7	6.64 µM	4.22	22.6	9.36	5.59	0.335 µM	0.386	0.192 µM	2.37 µM	0.596 µM	0.244	0.59 µM	0.931	0.223 µM	–
C/C(=N\NC(=S)N1CCN(c2ccccn2)CC1)c1ccccn1	–	12.3	–	23.6	0.577	0.0104 µM	12.9	7.37	14.2	12.8	–	–	–	–	0.0416 µM	0.231	–	–	0.406 µM	0.000138 µM
COc1cc(CC(C)=O)cc(OC)c1	> 100	> 100	> 100	> 100	> 100	78.5 µM	–	> 100	> 100	> 100	–	–	–	–	–	–	–	–	–	–
CS(=O)(=O)N1CCC(n2c(=O)c(Oc3ccc(F)cc3F)cc3cnc(NC4CCOCC4)nc32)CC1	–	> 25	> 25	> 25	> 25	> 25 µM	> 25	> 25	> 25	> 25	> 25 µM	> 25	> 17.5 µM	24.5 µM	> 25 µM	> 25	> 20.8 µM	> 25	> 25 µM	–
CC#C[C@]1(O)CCC2[C@@H]3CCC4=CC(=O)CCC4=C3[C@@H](c3ccc(N(C)C)cc3)C[C@@]21C (stereo partly specified)	53	34	36.5	7.15	50.7	38 µM	–	> 100	27.6	42	–	–	–	–	–	–	–	–	–	–
COC1=CC(c2ccc[nH]2)=N/C1=C\c1[nH]c(C)c(C(=O)CCC(=O)Oc2ccc3c(c2)CCC2C3CC[C@]3(C)[C@@H](O)CC[C@@H]23)c1C (stereo partly specified)	–	> 100	> 100	–	61.5	> 100 µM	17.8	> 100	> 100	–	3.25 µM	> 100	–	3.51 µM	4.7 µM	3.52	2.19 µM	2.91	–	–
COC(=O)c1cc(NC(=O)c2cc(NC(=O)c3cc([N+](=O)[O-])n(C)c3)cn2C)cn1C	> 100	> 100	> 100	> 100	> 100	–	> 100	> 100	> 100	–	> 100 µM	> 100	> 100 µM	40.1 µM	–	> 100	> 100 µM	> 100	–	> 100 µM
